Results: patent publication US9902736B2, “1-oxo/acylation-14-acylated oridonin derivative, preparation method therefor and application thereof” (HANGZHOU BENSHENG PHARMACEUTICAL CO., LTD., priority 2012, dated 2018)
Values after ≈ are worked out from the molar mass of the structure shown. Where two headings read alike, the source gives them in different places.

Experiments:
Hep-2 = assay: Solid tumor cell growth inhibition, MTT, 72 h; type: cell-based, human; conditions: for IC50 / IC90: Homo sapiens, HEp-2, 72 h, MTT
Summary of the method: (§1)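 Plating density was 6000 cells per well, in DMEM High Glucose medium with 10% serum, kept at 37° C in 5% CO2 throughout.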

CNE = assay: Solid tumor cell growth inhibition, MTT, 72 h; type: cell-based, human; conditions: for IC50 / IC90: Homo sapiens, CNE, 72 h, MTT
Summary of the method: as §1

MGC-803 = assay: Solid tumor cell growth inhibition, MTT, 72 h; type: cell-based, human; conditions: for IC50 / IC90: Homo sapiens, MGC-803, 72 h, MTT
Summary of the method: as §1

Hela = assay: Solid tumor cell growth inhibition, MTT, 72 h; type: cell-based, human; conditions: for IC50 / IC90: Homo sapiens, HeLa, 72 h, MTT
Summary of the method: as §1

RPMI 8226 = assay: Multiple myeloma cell growth inhibition, MTT, 72 h; type: cell-based; conditions: Homo sapiens
Summary of the method: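 Growth inhibition by MTT after 72 h drug exposure (37 °C, 5% CO2) over a concentration range of oridonin derivatives. RPMI 8226 cells plated at 6000 per well and dosed the following day.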

NB4 = assay: Leukemia cell growth inhibition, MTT, 72 h; type: cell-based, human; conditions: for IC50 / IC90: Homo sapiens, NB-4, 72 h, MTT
Summary of the method: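 MTT read-out of viable cell concentration after 72 hours of exposure at 37° C under 5% CO2. Compounds were dosed at several concentrations one day after plating 6000 cells per well.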

Jurkat = assay: Leukemia cell growth inhibition, MTT, 72 h; type: cell-based, human; conditions: Homo sapiens, Jurkat; 72 h, MTT
Summary of the method: (§2)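 Leukemia lines used were drug-resistant CML K562/ADR, ALL lines H9 and Jurkat, and AML-M2 Kasumi-1. Each was plated at 6000 cells per well and exposed to varying compound concentrations from day two for 72 hours, then assayed by MTT.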

H9 = assay: Leukemia cell growth inhibition, MTT, 72 h; type: cell-based, human; conditions: for IC50 / IC90: Homo sapiens, H9, 72 h, MTT
Summary of the method: as §2

PANC-1 = assay: Solid tumor cell growth inhibition, MTT, 72 h; type: cell-based; conditions: Homo sapiens
Summary of the method: as §1

Becap-37 = assay: Solid tumor cell growth inhibition, MTT, 72 h; type: cell-based; conditions: Homo sapiens
Summary of the method: as §1

U87-MG = assay: Solid tumor cell growth inhibition, MTT, 72 h; type: cell-based; conditions: Homo sapiens, U-87 MG
Summary of the method: as §1

Hep G2 = assay: Solid tumor cell growth inhibition, MTT, 72 h; type: cell-based; conditions: Homo sapiens, HepG2
Summary of the method: as §1

CaEs-17 = assay: Solid tumor cell growth inhibition, MTT, 72 h; type: cell-based; conditions: Homo sapiens, CaEs17
Summary of the method: as §1

MG-63 = assay: Solid tumor cell growth inhibition, MTT, 72 h; type: cell-based; conditions: Homo sapiens
Summary of the method: as §1

PC-3 = assay: Solid tumor cell growth inhibition, MTT, 72 h; type: cell-based; conditions: Homo sapiens
Summary of the method: as §1

A549 = assay: Solid tumor cell growth inhibition, MTT, 72 h; type: cell-based; conditions: Homo sapiens
Summary of the method: as §1

RKO = assay: Solid tumor cell growth inhibition, MTT, 72 h; type: cell-based; conditions: Homo sapiens
Summary of the method: as §1

SK-OV-3 = assay: Solid tumor cell growth inhibition, MTT, 72 h; type: cell-based; conditions: Homo sapiens; for IC50: read-out: IC50 SK-OV-3; for IC90: read-out: IC90 SK-OV-3
Summary of the method: as §1

Kasumi-1 = assay: Leukemia cell growth inhibition, MTT, 72 h; type: cell-based; conditions: Homo sapiens
Summary of the method: as §2

K562/ADR = assay: Leukemia cell growth inhibition, MTT, 72 h; type: cell-based; conditions: Homo sapiens
Summary of the method: as §2

## C=C1C(=O)[C@]23[C@H](OC(=O)C4CCN(S(=O)(=O)CC)CC4)[C@H]1CC[C@H]2[C@@]12CO[C@@]3(O)[C@@H](O)[C@@H]1C(C)(C)CCC2=O [BS-OR-038]
Hep-2
  IC50: 4.34 µg/mL (≈ 7.67 µM)
  IC90: 13.9 µg/mL (≈ 24.6 µM)
CNE
  IC50: 3.29 µg/mL (≈ 5.82 µM)
  IC90: 10.9 µg/mL (≈ 19.2 µM)
MGC-803
  IC50: 3.36 µg/mL (≈ 5.94 µM)
  IC90: 9.55 µg/mL (≈ 16.9 µM)
Hela
  IC50: 3.01 µg/mL (≈ 5.32 µM)
  IC90: 6.16 µg/mL (≈ 10.9 µM)
RPMI 8226
  IC50: 0.97 µg/mL (≈ 1.71 µM)
  IC90: 3.58 µg/mL (≈ 6.33 µM)
NB4
  IC50: 0.44 µg/mL (≈ 0.778 µM)
  IC90: 2.63 µg/mL (≈ 4.65 µM)
Jurkat
  IC50: 1.36 µg/mL (≈ 2.4 µM)
  IC90: 5.91 µg/mL (≈ 10.4 µM)
H9
  IC50: 1.42 µg/mL (≈ 2.51 µM)
  IC90: 3.01 µg/mL (≈ 5.32 µM)
PANC-1
  IC50: 4.7 µg/mL (≈ 8.31 µM)
  IC90: 11.4 µg/mL (≈ 20.1 µM)
Becap-37
  IC50: 3.04 µg/mL (≈ 5.37 µM)
  IC90: 7.59 µg/mL (≈ 13.4 µM)
U87-MG
  IC50: 1.98 µg/mL (≈ 3.5 µM)
  IC90: 6.78 µg/mL (≈ 12 µM)
Hep G2
  IC50: 3.37 µg/mL (≈ 5.96 µM)
  IC90: 13.2 µg/mL (≈ 23.3 µM)
CaEs-17
  IC50: 2.18 µg/mL (≈ 3.85 µM)
  IC90: 7.64 µg/mL (≈ 13.5 µM)
MG-63
  IC50: 0.95 µg/mL (≈ 1.68 µM)
  IC90: 4.89 µg/mL (≈ 8.64 µM)
PC-3
  IC50: 5.3 µg/mL (≈ 9.37 µM)
  IC90: 11.6 µg/mL (≈ 20.5 µM)
A549
  IC50: 6.1 µg/mL (≈ 10.8 µM)
  IC90: 10.2 µg/mL (≈ 18 µM)
RKO
  IC50: 1.01 µg/mL (≈ 1.79 µM)
  IC90: 1.93 µg/mL (≈ 3.41 µM)
SK-OV-3; SK-OV-3, 72 h, MTT
  IC50: 5.3 µg/mL (≈ 9.37 µM)
  IC90: 11.6 µg/mL (≈ 20.5 µM)
Kasumi-1
  IC50: 1.1 µg/mL (≈ 1.94 µM)
  IC90: 3.95 µg/mL (≈ 6.98 µM)
K562/ADR
  IC50: 1.43 µg/mL (≈ 2.53 µM)
  IC90: 3.92 µg/mL (≈ 6.93 µM)

## C=C1C(=O)[C@]23[C@H](OC(=O)c4ccc(C)cc4)[C@H]1CC[C@H]2[C@@]12CO[C@@]3(O)[C@@H](O)[C@@H]1C(C)(C)CCC2OC(C)=O (some centres unmarked) [BS-OR-090]
Hep-2
  IC50: 0.96 µg/mL (≈ 1.83 µM)
  IC90: 5.71 µg/mL (≈ 10.9 µM)
Hep-2; in comparison with oridonin
  anti-Hep-2 activity increased: ~5 fold
CNE
  IC50: 0.98 µg/mL (≈ 1.87 µM)
  IC90: 4.59 µg/mL (≈ 8.75 µM)
CNE; in comparison with oridonin
  anti-CNE activity increased: ~6 fold
MGC-803
  IC50: 0.52 µg/mL (≈ 0.991 µM)
  IC90: 6.3 µg/mL (≈ 12 µM)
MGC-803; in comparison with oridonin
  anti-MGC-803 activity increased: ~10 fold
Hela
  IC50: 0.96 µg/mL (≈ 1.83 µM)
  IC90: 3.67 µg/mL (≈ 7 µM)
Hela; in comparison with oridonin
  anti-Hela activity increased: more than 5 fold
RPMI 8226
  IC50: 0.2 µg/mL (≈ 0.381 µM)
  IC90: 1.61 µg/mL (≈ 3.07 µM)
NB4
  IC50: 0.05 µg/mL (≈ 0.0953 µM)
  IC90: 0.94 µg/mL (≈ 1.79 µM)
NB4; as compared with oridonin
  anti-NB4 cell line activity increased: 15 fold
Jurkat
  IC50: 0.4 µg/mL (≈ 0.762 µM)
  IC90: 2.62 µg/mL (≈ 4.99 µM)
H9
  IC50: 0.06 µg/mL (≈ 0.114 µM)
  IC90: 0.37 µg/mL (≈ 0.705 µM)
H9; as compared with oridonin
  anti-H9 cell line activity increased: 22 fold
PANC-1
  IC50: 1.31 µg/mL (≈ 2.5 µM)
  IC90: 4.41 µg/mL (≈ 8.41 µM)
Becap-37
  IC50: 0.99 µg/mL (≈ 1.89 µM)
  IC90: 3.01 µg/mL (≈ 5.74 µM)
U87-MG
  IC50: 0.51 µg/mL (≈ 0.972 µM)
  IC90: 1.67 µg/mL (≈ 3.18 µM)
Hep G2
  IC50: 0.74 µg/mL (≈ 1.41 µM)
  IC90: 7.09 µg/mL (≈ 13.5 µM)
CaEs-17
  IC50: 0.9 µg/mL (≈ 1.72 µM)
  IC90: 3.65 µg/mL (≈ 6.96 µM)
MG-63
  IC50: 0.36 µg/mL (≈ 0.686 µM)
  IC90: 0.92 µg/mL (≈ 1.75 µM)
PC-3
  IC50: 1.35 µg/mL (≈ 2.57 µM)
  IC90: 5.37 µg/mL (≈ 10.2 µM)
A549
  IC50: 1.82 µg/mL (≈ 3.47 µM)
  IC90: 6.27 µg/mL (≈ 12 µM)
RKO
  IC50: 0.35 µg/mL (≈ 0.667 µM)
  IC90: 0.88 µg/mL (≈ 1.68 µM)
SK-OV-3; SK-OV-3, 72 h
  IC50: 1.35 µg/mL (≈ 2.57 µM)
  IC90: 5.37 µg/mL (≈ 10.2 µM)
Kasumi-1
  IC50: 0.37 µg/mL (≈ 0.705 µM)
  IC90: 1.3 µg/mL (≈ 2.48 µM)
K562/ADR
  IC50: 0.36 µg/mL (≈ 0.686 µM)
  IC90: 1.48 µg/mL (≈ 2.82 µM)
